Here are results for 27 compounds from patent publication US20240294545A1 (CSPC Zhongqi Pharmaceutical Technology (Shijiazhuang) Co., …, priority 2020, published 2024).

This assay deals with ATM (Homo sapiens (Human), UniProt Q13315). Briefly: Caliper mobility shift assay for ATM. It is filed as biochemical. The following applies: read-out: IC50 of inhibitory activity on ATM kinase. The method, then: 1.2 Determination of the Inhibitory Activities of Compounds on ATM: Caliper Mobility Shift Assay for ATM
ATM, sequence (Q13315 whole entry): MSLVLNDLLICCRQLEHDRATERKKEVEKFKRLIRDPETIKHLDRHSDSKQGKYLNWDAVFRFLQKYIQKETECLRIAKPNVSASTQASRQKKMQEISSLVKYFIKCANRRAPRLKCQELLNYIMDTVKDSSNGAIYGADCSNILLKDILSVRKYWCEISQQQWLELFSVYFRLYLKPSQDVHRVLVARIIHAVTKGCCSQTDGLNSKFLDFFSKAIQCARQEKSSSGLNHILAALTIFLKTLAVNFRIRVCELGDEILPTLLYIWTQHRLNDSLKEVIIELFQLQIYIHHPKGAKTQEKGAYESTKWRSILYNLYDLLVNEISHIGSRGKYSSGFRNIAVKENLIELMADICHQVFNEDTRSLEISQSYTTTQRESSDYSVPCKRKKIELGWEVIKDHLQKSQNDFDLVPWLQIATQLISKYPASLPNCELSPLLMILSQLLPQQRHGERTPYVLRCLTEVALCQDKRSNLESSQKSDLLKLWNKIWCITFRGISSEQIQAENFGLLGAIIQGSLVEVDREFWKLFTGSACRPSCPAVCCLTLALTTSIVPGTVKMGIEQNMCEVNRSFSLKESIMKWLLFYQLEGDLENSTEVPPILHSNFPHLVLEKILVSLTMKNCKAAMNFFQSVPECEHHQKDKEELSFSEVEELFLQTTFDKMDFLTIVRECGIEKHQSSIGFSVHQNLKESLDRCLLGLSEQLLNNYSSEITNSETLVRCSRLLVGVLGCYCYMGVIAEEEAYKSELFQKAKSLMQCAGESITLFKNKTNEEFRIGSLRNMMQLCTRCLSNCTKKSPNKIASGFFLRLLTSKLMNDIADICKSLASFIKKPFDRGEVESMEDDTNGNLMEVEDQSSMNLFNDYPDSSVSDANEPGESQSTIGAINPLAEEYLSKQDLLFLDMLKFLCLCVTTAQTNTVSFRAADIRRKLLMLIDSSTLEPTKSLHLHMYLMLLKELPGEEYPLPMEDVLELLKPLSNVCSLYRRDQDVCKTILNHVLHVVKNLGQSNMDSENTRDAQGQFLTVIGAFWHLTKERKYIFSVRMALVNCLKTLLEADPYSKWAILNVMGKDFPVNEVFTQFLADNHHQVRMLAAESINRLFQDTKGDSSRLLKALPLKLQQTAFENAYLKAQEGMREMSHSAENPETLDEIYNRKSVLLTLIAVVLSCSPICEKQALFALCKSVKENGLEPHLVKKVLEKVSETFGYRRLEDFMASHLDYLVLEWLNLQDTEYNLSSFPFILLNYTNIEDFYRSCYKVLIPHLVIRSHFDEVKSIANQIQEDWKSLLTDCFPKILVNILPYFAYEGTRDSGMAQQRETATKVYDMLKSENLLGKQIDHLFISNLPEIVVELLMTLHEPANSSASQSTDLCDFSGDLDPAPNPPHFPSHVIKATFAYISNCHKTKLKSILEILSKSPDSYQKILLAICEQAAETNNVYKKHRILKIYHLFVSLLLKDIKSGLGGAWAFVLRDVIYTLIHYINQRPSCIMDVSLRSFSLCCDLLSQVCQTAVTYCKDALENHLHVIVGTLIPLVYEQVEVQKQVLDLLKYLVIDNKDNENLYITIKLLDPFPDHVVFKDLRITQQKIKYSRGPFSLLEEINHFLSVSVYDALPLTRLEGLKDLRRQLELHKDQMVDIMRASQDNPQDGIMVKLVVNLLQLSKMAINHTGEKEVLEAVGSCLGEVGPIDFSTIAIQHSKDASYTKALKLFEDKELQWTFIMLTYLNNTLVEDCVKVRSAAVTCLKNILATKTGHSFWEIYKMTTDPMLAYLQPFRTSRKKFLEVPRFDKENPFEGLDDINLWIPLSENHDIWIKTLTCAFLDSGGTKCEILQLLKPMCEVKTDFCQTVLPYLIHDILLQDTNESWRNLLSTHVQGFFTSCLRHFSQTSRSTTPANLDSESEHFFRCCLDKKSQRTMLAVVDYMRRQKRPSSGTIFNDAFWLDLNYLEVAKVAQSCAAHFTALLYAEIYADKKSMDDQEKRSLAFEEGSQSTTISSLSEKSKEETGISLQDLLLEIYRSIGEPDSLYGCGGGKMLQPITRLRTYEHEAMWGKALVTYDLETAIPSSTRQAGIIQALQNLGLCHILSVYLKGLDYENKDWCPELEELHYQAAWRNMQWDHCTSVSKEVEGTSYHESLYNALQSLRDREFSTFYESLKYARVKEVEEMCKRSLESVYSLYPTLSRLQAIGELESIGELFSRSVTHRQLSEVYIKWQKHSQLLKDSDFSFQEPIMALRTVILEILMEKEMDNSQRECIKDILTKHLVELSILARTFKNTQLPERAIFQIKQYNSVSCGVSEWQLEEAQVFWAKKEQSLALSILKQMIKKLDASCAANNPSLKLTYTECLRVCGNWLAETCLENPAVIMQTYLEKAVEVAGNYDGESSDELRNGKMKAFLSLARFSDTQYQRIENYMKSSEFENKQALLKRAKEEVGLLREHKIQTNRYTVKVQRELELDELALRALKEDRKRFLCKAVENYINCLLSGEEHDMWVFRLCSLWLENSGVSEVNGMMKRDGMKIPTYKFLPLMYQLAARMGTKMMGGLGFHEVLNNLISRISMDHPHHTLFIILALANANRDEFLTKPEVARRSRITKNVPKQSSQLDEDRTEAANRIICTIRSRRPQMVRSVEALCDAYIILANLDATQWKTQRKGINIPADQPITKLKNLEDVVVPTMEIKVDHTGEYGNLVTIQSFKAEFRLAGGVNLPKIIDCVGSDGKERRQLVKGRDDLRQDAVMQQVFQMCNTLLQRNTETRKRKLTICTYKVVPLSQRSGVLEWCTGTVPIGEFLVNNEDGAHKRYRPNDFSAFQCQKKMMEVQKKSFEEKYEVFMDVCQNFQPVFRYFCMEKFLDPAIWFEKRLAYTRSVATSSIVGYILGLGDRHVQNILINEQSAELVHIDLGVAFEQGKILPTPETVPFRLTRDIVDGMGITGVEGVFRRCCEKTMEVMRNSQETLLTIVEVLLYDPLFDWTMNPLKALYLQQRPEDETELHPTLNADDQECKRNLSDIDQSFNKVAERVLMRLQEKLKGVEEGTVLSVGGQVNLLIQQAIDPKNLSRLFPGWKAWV
To a 96-well plate, 98 μL of DMSO and 2 μL of the 10 mM stock solution were added and mixed evenly so that the concentration of the solution was 200 μM.
Based on the inhibitory rates of the compound at different concentrations, IC50 was calculated according to the formula: Y=Bottom+(Top−Bottom)/(1+(IC50/X)^HillSlope).
As for `Cn1c(=O)n2c3c4c(c(-c5ccc(OCCCN6CCCCC6)nc5)ccc4ncc31)OCC21CCC1` [Example A-176, 2-methyl-7-(6-(3-(piperidin-1-yl)propoxy)pyridin-3-yl)-2,9-dihydro-1H-spiro[8-oxa-2,4,10a-triazanaphtho[2,1,8-cde]azulene-10,1′-cyclobutan]-1-one], the IC50 – broadly, the concentration that inhibits the measured activity by half – stood at 0.17 nM.

With `C[C@H]1COc2c(-c3ccc(OCCCN4CCCCC4)nc3)c(F)cc3ncc4c(c23)n1c(=O)n4C` [Example A-1, (S)-6-fluoro-2,10-dimethyl-7-(6-(3-(piperidin-1-yl)propoxy)pyridin-3-yl)-9,10-dihydro-8-oxa-2,4,10a-triazanaphtho[2,1,8-cde]azulen-1(2H)-one], the IC50 is 0.79 nM.

As for `C[C@H]1COc2c(-c3ccc(OCCCN4CCC(C)(C)CC4)nc3)ccc3ncc4c(c23)n1c(=O)n4C` [Example A-207, (S)-7-(6-(3-(4,4-dimethylpiperidin-1-yl)propoxy)pyridin-3-yl)-2,10-dimethyl-9,10-dihydro-8-oxa-2,4,10a-triazanaphtho[2,1,8-cde]azulen-1(2H)-one], the IC50 was determined as 0.44 nM.

With `Cn1c(=O)n2c3c4c(c(-c5ccc(OCCCN6CCCCC6)nc5)c(F)cc4ncc31)OCC21CCC1` [Example A-28, 6-fluoro-2-methyl-7-(6-(3-(piperidin-1-yl)propoxy)pyridin-3-yl)-2,9-dihydro-1H-spiro[8-oxa-2,4,10a-triazanaphtho[2,1,8-cde]azulene-10,1′-cyclobutan]-1-one], the IC50 turned out to be 0.28 nM.

For `Cn1c(=O)n2c3c4c(c(-c5ccc(OCCCN6CC[C@H](C#N)C6)nc5)c(F)cc4ncc31)OCC21CCC1` [Example A-160], the IC50 was found to be 0.43 nM.

For `CC[C@H]1COc2c(-c3ccc(OCCCN4CCCCC4)nc3)c(F)cc3ncc4c(c23)n1c(=O)n4C` [Example A-23, (S)-10-ethyl-6-fluoro-2-methyl-7-(6-(3-(piperidin-1-yl)propoxy)pyridin-3-yl)-9,10-dihydro-8-oxa-2,4,10a-triazanaphtho[2,1,8-cde]azulen-1(2H)-one], the IC50 came out at 0.42 nM.

In the case of `CC[C@H]1COc2c(-c3ccc(OCCCN(C)C)nc3)ccc3ncc4c(c23)n1c(=O)n4C` [Example A-189, (S)-7-(6-(3-(dimethylamino)propoxy)pyridin-3-yl)-10-ethyl-2-methyl-9,10-dihydro-8-oxa-2,4,10a-triazanaphtho[2,1,8-cde]azulen-1(2H)-one], the IC50 turned out to be 0.38 nM.

Take `COc1cc2ncc3c4c2c(c1-c1ccc(OCCCN2CCCCC2)nc1)OC[C@@H](C)n4c(=O)n3C` [Example A-32, (R)-6-methoxy-2,10-dimethyl-7-(6-(3-(piperidin-1-yl)propoxy)pyridin-3-yl)-9,10-dihydro-8-oxa-2,4,10a-triazanaphtho[2,1,8-cde]azulen-1(2H)-one]: the concentration for half-maximal inhibition (IC50) was 0.94 nM.

As to `C[C@@H]1CNc2c(-c3ccc(OCCCN4CCCCC4)nc3)c(F)cc3ncc4c(c23)n1c(=O)n4C` [Example A-195, (R)-6-fluoro-2,10-dimethyl-7-(6-(3-(piperidin-1-yl)propoxy)pyridin-3-yl)-2,8,9,10-tetrahydro-1H-2,4,8,10a-tetraazanaphtho[2,1,8-cde]azulen-1(2H)-one], the IC50 stood at 0.41 nM.

On to `Cn1c(=O)n2c3c4c(c(-c5ccc(OCCCN6CC[C@H](F)C6)nc5)c(F)cc4ncc31)OCC21CCC1` [Example A-161, (S)-6-fluoro-7-(6-(3-(3-fluoropyrrolidin-1-yl)propoxy)pyridin-3-yl)-2-methyl-2,9-dihydro-1H-spiro[8-oxa-2,4,10a-triazanaphtho[2,1,8-cde]azulene-10,1′-cyclobutan]-1-one], for which the half-maximal inhibitory concentration (IC50) was 0.32 nM.

For `Cn1c(=O)n2c3c4c(c(-c5ccc(OCCCN6CCCCC6)nc5)c(F)cc4ncc31)OC[C@H]2Cc1ccccc1` [Example A-14, (R)-10-benzyl-6-fluoro-2-methyl-7-(6-(3-(piperidin-1-yl)propoxy)pyridin-3-yl)-9,10-dihydro-8-oxa-2,4,10a-triazanaphtho[2,1,8-cde]azulen-1(2H)-one], the IC50 came to 0.42 nM.

Turning to `C[C@H]1COc2c(-c3ccc(N4CCC(N(C)C)CC4)nc3)c(F)cc3ncc4c(c23)n1c(=O)n4C` [Example A-159, (S)-7-(6-(4-(dimethylamino)piperidin-1-yl)pyridin-3-yl)-6-fluoro-2,10-dimethyl-9,10-dihydro-8-oxa-2,4,10a-triazanaphtho[2,1,8-cde]azulen-1(2H)-one], the IC50 amounted to 0.92 nM.

Take `Cn1c(=O)n2c3c4c(c(-c5ccc(OCCCN6CCCCC6)nc5)c(F)cc4ncc31)OCC2C1CC1` (stereo not drawn) [Example A-27, 10-cyclopropyl-6-fluoro-2-methyl-7-(6-(3-(piperidin-1-yl)propoxy)pyridin-3-yl)-9,10-dihydro-8-oxa-2,4,10a-triazanaphtho[2,1,8-cde]azulen-1(2H)-one]: the concentration for half-maximal inhibition (IC50) is 0.28 nM.

Take `C[C@H]1COc2c(-c3ccc(OCCCN4CCC5(CC4)COC5)nc3)c(F)cc3ncc4c(c23)n1c(=O)n4C` [Example A-171, (S)-7-(6-(3-(2-oxa-7-azaspiro[3.5]nonan-7-yl)propoxy)pyridin-3-yl)-6-fluoro-2,10-dimethyl-9,10-dihydro-8-oxa-2,4,10a-triazanaphtho[2,1,8-cde]azulen-1(2H)-one]: the IC50 came to 0.42 nM.

For the compound `COc1cc2ncc3c4c2c(c1-c1cnn(C)c1)OCC(c1ccccn1)n4c(=O)n3C` (stereo not drawn) [Example A-30, 6-methoxy-2-methyl-7-(1-methyl-1H-pyrazol-4-yl)-10-(pyridin-2-yl)-9,10-dihydro-8-oxa-2,4,10a-triazanaphtho[2,1,8-cde]azulen-1(2H)-one], the IC50 amounted to 0.27 nM.

For the compound `Cn1c(=O)n2c3c4c(c(-c5ccc(OCCCN6CCCCC6)nc5)c(F)cc4ncc31)OCCC2` [Compound A-154], the IC50 amounted to 0.71 nM.

In the case of `CN(C)CCCOc1ccc(-c2ccc3ncc4c5c3c2OCC2(CC2)n5c(=O)n4C)cn1` [Example A-179, 7-(6-(3-(dimethylamino)propoxy)pyridin-3-yl)-2-methyl-2,9-dihydro-1H-spiro[8-oxa-2,4,10a-triazanaphtho[2,1,8-cde]azulene-10,1′-cyclopropan]-1-one], the IC50 came to 0.37 nM.

In the case of `CC[C@@H]1COc2c(-c3ccc(OCCCN4CCCCC4)nc3)ccc3ncc4c(c23)n1c(=O)n4C` [Example A-187, (R)-10-ethyl-2-methyl-7-(6-(3-(piperidin-1-yl)propoxy)pyridin-3-yl)-9,10-dihydro-8-oxa-2,4,10a-triazanaphtho[2,1,8-cde]azulen-1(2H)-one], the half-inhibitory concentration (IC50) is 0.22 nM.

Take `CC1CCN(CCCOc2ccc(-c3ccc4ncc5c6c4c3OC[C@H](C)n6c(=O)n5C)cn2)CC1` [Example A-208, (S)-2,10-dimethyl-7-(6-(3-(4-methylpiperidin-1-yl)propoxy)pyridin-3-yl)-9,10-dihydro-8-oxa-2,4,10a-triazanaphtho[2,1,8-cde]azulen-1(2H)-one]: the half-maximal inhibitory concentration (IC50) came out at 0.29 nM.

For the compound `CN(C)CCCOc1ccc(-c2ccc3ncc4c5c3c2OCC(C)(C)n5c(=O)n4C)cn1` [Example A-180, 7-(6-(3-(dimethylamino)propoxy)pyridin-3-yl)-2,10,10-trimethyl-9,10-dihydro-8-oxa-2,4,10a-triazanaphtho[2,1,8-cde]azulen-1(2H)-one], the IC50 is 0.26 nM.

Consider `C[C@H]1COc2c(-c3ccc(OCCCN(C)C)nc3)ccc3ncc4c(c23)n1c(=O)n4C` [Example A-178, (S)-7-(6-(3-(dimethylamino)propoxy)pyridin-3-yl)-2,10-dimethyl-9,10-dihydro-8-oxa-2,4,10a-triazanaphtho[2,1,8-cde]azulen-1(2H)-one], for which the half-inhibitory concentration (IC50) came to 0.25 nM.

Regarding `CC[C@H]1CNc2c(-c3ccc(OCCCN4CCCCC4)nc3)c(F)cc3ncc4c(c23)n1c(=O)n4C` [Example A-196, (S)-10-ethyl-6-fluoro-2-methyl-7-(6-(3-(piperidin-1-yl)propoxy)pyridin-3-yl)-2,8,9,10-tetrahydro-1H-2,4,8,10a-tetraazanaphtho[2,1,8-cde]azulen-1(2H)-one], the IC50 was determined as 0.51 nM.

On to `C[C@@H]1COc2c(-c3ccc(OCCCN4CCCCC4)nc3)c(F)cc3ncc4c(c23)n1c(=O)n4C` [Example A-4, (R)-6-fluoro-2,10-dimethyl-7-(6-(3-(piperidin-1-yl)propoxy)pyridin-3-yl)-9,10-dihydro-8-oxa-2,4,10a-triazanaphtho[2,1,8-cde]azulen-1(2H)-one], for which the IC50 came out at 0.9 nM.

For `Cn1c(=O)n2c3c4c(c(-c5ccc(OCCCN6CCCC6)nc5)c(F)cc4ncc31)OCC21CCC1` [Example A-162, 6-fluoro-2-methyl-7-(6-(3-(pyrrolidin-1-yl)propoxy)pyridin-3-yl)-2,9-dihydro-1H-spiro[8-oxa-2,4,10a-triazanaphtho[2,1,8-cde]azulene-10,1′-cyclobutan]-1-one], the IC50 turned out to be 0.36 nM.

`CN(C)CCCOc1ccc(-c2ccc3ncc4c5c3c2OCC2(CCC2)n5c(=O)n4C)cn1` [Example A-185, 7-(6-(3-(dimethylamino)propoxy)pyridin-3-yl)-2-methyl-2,9-dihydro-1H-spiro[8-oxa-2,4,10a-triazanaphtho[2,1,8-cde]azulene-10,1′-cyclobutan]-1-one]: the IC50 turned out to be 0.25 nM.

Take `Cn1c(=O)n2c3c4c(c(-c5ccc(OCCCN6CCCCC6)nc5)c(F)cc4ncc31)OCC21CC1` [Example A-11, 6-fluoro-2-methyl-7-(6-(3-(piperidin-1-yl)propoxy)pyridin-3-yl)-2,9-dihydro-1H-spiro[8-oxa-2,4,10a-triazanaphtho[2,1,8-cde]azulene-10,1-cyclopropan]-1-one]: the IC50 was 0.54 nM.

On to `Cn1c(=O)n2c3c4c(c(-c5ccc(OCCCN6CCCCC6)nc5)c(F)cc4ncc31)OC[C@@H]2Cc1ccccc1` [Example A-13, (S)-10-benzyl-6-fluoro-2-methyl-7-(6-(3-(piperidin-1-yl)propoxy)pyridin-3-yl)-9,10-dihydro-8-oxa-2,4,10a-triazanaphtho[2,1,8-cde]azulen-1(2H)-one], for which the IC50 was determined as 0.4 nM.
